According to US11572399B2, “Long-acting GIP peptide analogues” (University of Copenhagen, priority 2017, dated 2023):
pIC50: −log10 of the molar value. Peptide text beside a SMILES is read from it. * marks the point of attachment. C16 diacid = O=C(O)CCCCCCCCCCCCCCC(=O)*; Palmitoyl = CCCCCCCCCCCCCCCC(=O)*

Assays:
human GIP receptor [1] = molecular target: T1, human GIP receptor (Homo sapiens, UniProt P48546); assay: cAMP accumulation assay, antagonism of a GIP-mediated cAMP response (50-80% of max); format: cell-based; details: for Fold change of IC50 versus GIP(5-30)NH2: fold change of IC50 from GIP(5-30)NH2; for IC50: transiently transfected COS-7 cells, Table 1 and text, read-out: cAMP antagonism nM (IC50, antagonistic potency)
T1 construct: host or cells: COS-7, transient transfection (calcium phosphate), cDNA in pCMV-Script
T1 sequence (P48546 22-466): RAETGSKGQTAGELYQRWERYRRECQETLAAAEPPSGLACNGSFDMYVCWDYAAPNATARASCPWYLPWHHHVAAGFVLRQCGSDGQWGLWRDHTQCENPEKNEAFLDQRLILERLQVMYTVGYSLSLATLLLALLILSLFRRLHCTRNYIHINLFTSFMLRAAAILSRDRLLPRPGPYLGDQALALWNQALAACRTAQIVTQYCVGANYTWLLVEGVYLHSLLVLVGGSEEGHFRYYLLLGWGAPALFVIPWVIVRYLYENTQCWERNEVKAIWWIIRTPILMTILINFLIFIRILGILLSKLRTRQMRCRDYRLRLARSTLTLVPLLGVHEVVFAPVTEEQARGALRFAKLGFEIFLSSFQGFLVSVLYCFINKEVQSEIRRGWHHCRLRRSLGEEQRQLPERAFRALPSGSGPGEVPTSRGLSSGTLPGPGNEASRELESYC
Description: The day after, the cells were washed twice with Hepes buffered saline (HBS) buffer and incubated with HBS and 1 mM 3-isobutyl-1-methylxanthine (IBMX) for 30 min at 37° C. […] The HitHunter™ cAMP XS assay (DiscoveRx) was carried out according to the manufacturer's instructions.

human GIP receptor [2] = molecular target: T1, human GIP receptor; assay: 125I-human GIP competition binding assay, in the presence and absence of 2% HSA; details: for Fold change HSA (2%)/Casein (0.1%): IC50 (plus HSA)/IC50 (minus HSA); for Binding (+/−HSA) Fold: fold change +HSA/−HSA; for pIC50: heterologous competition binding, transiently transfected COS-7 cells expressing the human GIP receptor, read-out: Binding; for Ki: presence of 2% HSA;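 as to all read-outs here: nonspecific binding taken as radioligand bound to untransfected cells, IC50 obtained from nonlinear regression fits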
human GIP receptor [3] = molecular target: T1, human GIP receptor; assay: cAMP accumulation assay, agonism (ligand alone); format: cell-based; details: Table 1; for Emax: COS-7, intrinsic cAMP activity, COS-7 cells; for EC50: given as log EC50 (negative sign), read-out: cAMP agonism EC50 (log) (converted)
[4] = binding in 0.1% casein (absence of HSA), log value, read-out: logIC50 0.1% casein (converted)
[5] = binding in presence of 2% HSA, read-out: logIC50 2% HSA (converted)

SMILES | pIC50 (human GIP receptor [1]; antagonism of GIP-mediated cAMP response, COS-7 cells, read-out: cAMP accumulation IC50) | Fold change of IC50 versus GIP(5-30)NH2 (human GIP receptor [1]) | IC50 (human GIP receptor [1]) | Fold change HSA (2%)/Casein (0.1%) (human GIP receptor [2]) | IC50 (human GIP receptor [2]; [4]) | IC50 (human GIP receptor [2]; [5]) | Binding (+/−HSA) Fold (human GIP receptor [2]) | pIC50 (human GIP receptor [2]) | Emax (human GIP receptor [3]) | EC50 (human GIP receptor [3]) | Ability to antagonize the GIP-mediated cAMP response (in words) (human GIP receptor [1]) | Ki (human GIP receptor [2]) | Fold change in affinity, IC50 (plus HSA)/IC50 (minus HSA) (human GIP receptor [2]; presence vs absence of 2% HSA, proxy for albumin binding)
CC[C@H](C)[C@H](NC(=O)[C@H](CO)NC(=O)[C@H](Cc1ccc(O)cc1)NC(=O)[C@H](CC(=O)O)NC(=O)[C@H](CO)NC(=O)[C@@H](NC(=O)[C@H](Cc1ccccc1)NC(=O)[C@@H](N)[C@@H](C)O)[C@@H](C)CC)C(=O)N[C@@H](C)C(=O)N[C@@H](CCCCNC(=O)CCCCCCCCCCCCCCC(=O)O)C(=O)N[C@@H](CC(=O)O)C(=O)N[C@@H](CCCCN)C(=O)N[C@H](C(=O)N[C@@H](Cc1c[nH]cn1)C(=O)N[C@@H](CCC(N)=O)C(=O)N[C@@H](CCC(N)=O)C(=O)N[C@@H](CC(=O)O)C(=O)N[C@@H](Cc1ccccc1)C(=O)N[C@H](C(=O)N[C@@H](CC(N)=O)C(=O)N[C@@H](Cc1c[nH]c2ccccc12)C(=O)N[C@@H](CC(C)C)C(=O)N[C@@H](CC(C)C)C(=O)N[C@@H](C)C(=O)N[C@@H](CCC(N)=O)C(=O)N[C@@H](CCCCN)C(N)=O)C(C)C)[C@@H](C)CC [AT176, [hGIP(5-30)NH2[M14K]-C16diacid/14]] (H-TFISDYSIAK(C16 diacid)DKIHQQDFVNWLLAQK-NH2; N-terminus assumed) | 6.98 | 3.8 | 121 nM | 4.9 | 126 nM | 562 nM | 5.1 | 6.94 | 12% | 100 nM |  |  | 
CCCCCCCCCCCCCCCC(=O)N[C@H](C(=O)N[C@@H](Cc1ccccc1)C(=O)N[C@H](C(=O)N[C@@H](CO)C(=O)N[C@@H](CC(=O)O)C(=O)N[C@@H](Cc1ccc(O)cc1)C(=O)N[C@@H](CO)C(=O)N[C@H](C(=O)N[C@@H](C)C(=O)N[C@@H](CCSC)C(=O)N[C@@H](CC(=O)O)C(=O)N[C@@H](CCCNC(=N)N)C(=O)N[C@H](C(=O)N[C@@H](Cc1c[nH]cn1)C(=O)N[C@@H](CCC(N)=O)C(=O)N[C@@H](CCC(N)=O)C(=O)N[C@@H](CC(=O)O)C(=O)N[C@@H](Cc1ccccc1)C(=O)N[C@H](C(=O)N[C@@H](CC(N)=O)C(=O)N[C@@H](Cc1c[nH]c2ccccc12)C(=O)N[C@@H](CC(C)C)C(=O)N[C@@H](CC(C)C)C(=O)N[C@@H](C)C(=O)N[C@@H](CCC(N)=O)C(=O)N[C@@H](CCCNC(=N)N)C(N)=O)C(C)C)[C@@H](C)CC)[C@@H](C)CC)[C@@H](C)CC)[C@@H](C)O [AT135, [hGIP(5-30)NH2[K16R; K30R]-C16/5]] (Palmitoyl-TFISDYSIAMDRIHQQDFVNWLLAQR-NH2) |  |  |  | 0.2 | 6310 nM |  |  | 5.23 | 0% |  | failed to antagonize |  | 
CC[C@H](C)[C@H](NC(=O)[C@H](CO)NC(=O)[C@H](Cc1ccc(O)cc1)NC(=O)[C@H](CC(=O)O)NC(=O)[C@H](CO)NC(=O)[C@@H](NC(=O)[C@H](Cc1ccccc1)NC(=O)[C@@H](N)[C@@H](C)O)[C@@H](C)CC)C(=O)N[C@@H](C)C(=O)N[C@@H](CCSC)C(=O)N[C@@H](CC(=O)O)C(=O)N[C@@H](CCCCN)C(=O)N[C@H](C(=O)N[C@@H](Cc1c[nH]cn1)C(=O)N[C@@H](CCC(N)=O)C(=O)N[C@@H](CCC(N)=O)C(=O)N[C@@H](CC(=O)O)C(=O)N[C@@H](Cc1ccccc1)C(=O)N[C@@H](CCCCNC(=O)CCCCCCCCCCCCCCC(=O)O)C(=O)N[C@@H](CC(N)=O)C(=O)N[C@@H](Cc1c[nH]c2ccccc12)C(=O)N[C@@H](CC(C)C)C(=O)N[C@@H](CC(C)C)C(=O)N[C@@H](C)C(=O)N[C@@H](CCC(N)=O)C(=O)N[C@@H](CCCCN)C(N)=O)[C@@H](C)CC [AT183, [hGIP(5-30)NH2[V23K]-C16diacid/23]] (H-TFISDYSIAMDKIHQQDFK(C16 diacid)NWLLAQK-NH2; N-terminus assumed) |  | 55.0 |  | 1.8 |  |  | 4.4 |  | 0% |  |  |  | 
CC[C@H](C)[C@H](NC(=O)[C@H](CO)NC(=O)[C@H](Cc1ccc(O)cc1)NC(=O)[C@H](CC(=O)O)NC(=O)[C@H](CO)NC(=O)[C@@H](NC(=O)[C@H](Cc1ccccc1)NC(=O)[C@@H](N)[C@@H](C)O)[C@@H](C)CC)C(=O)N[C@@H](C)C(=O)N[C@@H](CCSC)C(=O)N[C@@H](CC(=O)O)C(=O)N[C@@H](CCCCN)C(=O)N[C@H](C(=O)N[C@@H](Cc1c[nH]cn1)C(=O)N[C@@H](CCCCNC(=O)CCCCCCCCCCCCCCC(=O)O)C(=O)N[C@@H](CCC(N)=O)C(=O)N[C@@H](CC(=O)O)C(=O)N[C@@H](Cc1ccccc1)C(=O)N[C@H](C(=O)N[C@@H](CC(N)=O)C(=O)N[C@@H](Cc1c[nH]c2ccccc12)C(=O)N[C@@H](CC(C)C)C(=O)N[C@@H](CC(C)C)C(=O)N[C@@H](C)C(=O)N[C@@H](CCC(N)=O)C(=O)N[C@@H](CCCCN)C(N)=O)C(C)C)[C@@H](C)CC [AT179, [hGIP(5-30)NH2[Q19K]-C16diacid/19]] (H-TFISDYSIAMDKIHK(C16 diacid)QDFVNWLLAQK-NH2; N-terminus assumed) |  | 2.1 | 89 nM | 3.6 |  |  | 6.3 |  | 32% | 100 nM |  | 2380 nM | 
CC[C@H](C)[C@H](NC(=O)[C@H](CO)NC(=O)[C@H](Cc1ccc(O)cc1)NC(=O)[C@H](CC(=O)O)NC(=O)[C@H](CO)NC(=O)[C@H](CCCCNC(=O)CCCCCCCCCCCCCCC(=O)O)NC(=O)[C@H](Cc1ccccc1)NC(=O)[C@@H](N)[C@@H](C)O)C(=O)N[C@@H](C)C(=O)N[C@@H](CCSC)C(=O)N[C@@H](CC(=O)O)C(=O)N[C@@H](CCCCN)C(=O)N[C@H](C(=O)N[C@@H](Cc1c[nH]cn1)C(=O)N[C@@H](CCC(N)=O)C(=O)N[C@@H](CCC(N)=O)C(=O)N[C@@H](CC(=O)O)C(=O)N[C@@H](Cc1ccccc1)C(=O)N[C@H](C(=O)N[C@@H](CC(N)=O)C(=O)N[C@@H](Cc1c[nH]c2ccccc12)C(=O)N[C@@H](CC(C)C)C(=O)N[C@@H](CC(C)C)C(=O)N[C@@H](C)C(=O)N[C@@H](CCC(N)=O)C(=O)N[C@@H](CCCCN)C(N)=O)C(C)C)[C@@H](C)CC [AT169, [hGIP(5-30)NH2[I7K]-C16diacid/7]] |  | 3.0 | 37 nM | 5.8 | 31.6 nM | 166 nM | 4.8 | 7.55 | 0% |  |  | 126 nM | 5.8 fold
CC[C@H](C)[C@H](NC(=O)[C@H](CO)NC(=O)[C@H](Cc1ccc(O)cc1)NC(=O)[C@H](CC(=O)O)NC(=O)[C@H](CO)NC(=O)[C@@H](NC(=O)[C@H](Cc1ccccc1)NC(=O)[C@@H](NC(=O)CCCCCCCCCCCCCCCCC(=O)O)[C@@H](C)O)[C@@H](C)CC)C(=O)N[C@@H](C)C(=O)N[C@@H](CCSC)C(=O)N[C@@H](CC(=O)O)C(=O)N[C@@H](CCCCN)C(=O)N[C@H](C(=O)N[C@@H](Cc1c[nH]cn1)C(=O)N[C@@H](CCC(N)=O)C(=O)N[C@@H](CCC(N)=O)C(=O)N[C@@H](CC(=O)O)C(=O)N[C@@H](Cc1ccccc1)C(=O)N[C@H](C(=O)N[C@@H](CC(N)=O)C(=O)N[C@@H](Cc1c[nH]c2ccccc12)C(=O)N[C@@H](CC(C)C)C(=O)N[C@@H](CC(C)C)C(=O)N[C@@H](C)C(=O)N[C@@H](CCC(N)=O)C(=O)N[C@@H](CCCCN)C(N)=O)C(C)C)[C@@H](C)CC [AT138, [hGIP(5-30)NH2—C18diacid/5]] |  |  |  | 3.8 | 2510 nM |  |  | 5.58 | 0% |  | failed to antagonize |  | 
